From patent publication US7276502B2, “Thiazoles useful as inhibitors of protein kinases” (Vertex Pharmaceuticals Incorporated, priority 2003, dated 2007)

Each compound was assayed against SYK (Homo sapiens, UniProt P43405) (assay: SYK inhibition assay (standard coupled enzyme assay)). Conditions: not given.
Type: biochemical
Protocol: Reactions were carried out in 100 mM HEPES (pH 7.5), 10 mM MgCl2, 25 mM NaCl, 1 mM DTT and 1.5% DMSO. Final substrate concentrations in the assay were 200 μM ATP (Sigma chemical Co.) and 4 μM poly Gly-Tyr peptide (Sigma Chemical Co.). Assays were carried out at 30° C. and 200 nM SYK. Final concentrations of the components of the coupled enzyme system were 2.5 mM phosphoenolpyruvate, 300 μM NADH, 30 μg/ml pyruvate kinase and 10 μg/ml lactate dehydrogenase.
An assay stock buffer solution was prepared containing all of the reagents listed above, with the exception of SYK, DTT, and the test compound of interest of the present invention. 56 μl of the test reaction was placed in a 96 well plate followed by the addition of 1 μl of 2 mM DMSO stock containing the test compound of the present invnetion (final compound concentration 30 μM).

Ki, ≤ 5 µM:
Cc1cc(C)cc(Nc2nccc(-c3nc(C)c(CCO)s3)n2)c1 [Example I-123], Cc1cc(C)cc(Nc2nccc(-c3ncc(C)s3)n2)c1 [Example I-41], OCc1csc(-c2ccnc(Nc3cc(O)cc(C(F)(F)F)c3)n2)n1 [Example I-146]

Same assay, conditions: coupled enzyme assay, 200 μM ATP, 4 μM poly Gly-Tyr peptide, 30° C.; read-out: Ki (SYK)

Ki, ≤ 5 µM:
Cc1cnc(-c2ccnc(Nc3cccc(C#N)c3)n2)s1 [Example I-90], CC(=O)Nc1cc(C)cc(Nc2nccc(-c3ncc(C)s3)n2)c1 [Example I-154], Cc1cc(C)cc(Nc2nccc(-c3ncc(N(C)C)s3)n2)c1 [Example I-94], COc1ccc(Nc2nccc(-c3ncc(C)s3)n2)cc1-c1ccccc1 [Example I-16], Cc1cnc(-c2ccnc(Nc3ccc4c(c3)CC(=O)N4)n2)s1 [Example I-36], Cc1cc2cc(Nc3nccc(-c4ncc(C)s4)n3)ccc2[nH]1 [Example I-18], Cc1cnc(-c2ccnc(Nc3ccc(N4CCOCC4)cc3)n2)s1 [Example I-91], Cc1cnc(-c2ccnc(Nc3ccc4c(c3)OCCO4)n2)s1 [Example I-127], CC(=O)c1ccc(Nc2nccc(-c3ncc(C)s3)n2)cc1 [Example I-116], Cc1cnc(-c2ccnc(Nc3cc(O)cc(C(F)(F)F)c3)n2)s1 [Example I-109], COC(=O)c1ccc(Nc2nccc(-c3ncc(C)s3)n2)cc1C [Example I-106], Cc1cc(C)cc(Nc2nccc(-c3ncc(CN4CCCCC4)s3)n2)c1 [Example I-46], Cc1cnc(-c2ccnc(Nc3ccc4c(C)cc(=O)oc4c3)n2)s1 [Example I-34], Cc1cnc(-c2ccnc(Nc3ccc(C(C)(C)C)cc3)n2)s1 [Example I-120], COc1ccc(Nc2nccc(-c3ncc(C)s3)n2)cc1 [Example I-28], Cc1cc(C)cc(Nc2nccc(-c3ncc(CNc4ccccc4)s3)n2)c1 [Example I-141], OCc1cnc(-c2ccnc(Nc3ccccc3OCc3ccccc3)n2)s1 [Example I-150], OCc1cnc(-c2ccnc(Nc3cc(O)cc(C(F)(F)F)c3)n2)s1 [Example I-144], Cc1cnc(-c2ccnc(Nc3c(C)cccc3C)n2)s1 [Example I-100], Cc1cc(C)cc(Nc2nccc(-c3ncc(CN4CCC[C@H]4CO)s3)n2)c1 [Example I-86], Cc1cnc(-c2ccnc(Nc3ccc(O)c(C)c3)n2)s1 [Example I-102], Cc1cc(C)cc(Nc2nccc(-c3nc(CBr)cs3)n2)c1 [Example I-64], Cc1cnc(-c2ccnc(Nc3cccc(N)c3)n2)s1 [Example I-32], Cc1cnc(-c2ccnc(Nc3cc(Cl)cc(Cl)c3)n2)s1 [Example I-51], Cc1cc(C)cc(Nc2nccc(-c3ncc(CNCCCO)s3)n2)c1 [Example I-88], Cc1cc(C)cc(Nc2nccc(-c3ncc(C(=O)O)s3)n2)c1 [Example I-118], Cc1cnc(-c2ccnc(Nc3ccc(N(C)C)cc3)n2)s1 [Example I-92], Cc1cnc(-c2ccnc(Nc3ccc4[nH]ccc4c3)n2)s1 [Example I-31], Cc1cc(C)cc(Nc2nccc(-c3ncc(CN(C)C)s3)n2)c1 [Example I-44], CCc1cnc(-c2ccnc(Nc3cc(C)cc(C)c3)n2)s1 [Example I-75], Cc1cc(Nc2nccc(-c3ncc(C)s3)n2)cc(NS(C)(=O)=O)c1 [Example I-155], CCCc1cnc(-c2ccnc(Nc3cc(C)cc(C)c3)n2)s1 [Example I-85], Cc1cnc(-c2ccnc(Nc3ccc([N+](=O)[O-])cc3)n2)s1 [Example I-79], Cc1cnc(-c2ccnc(Nc3cccc(OCc4ccccc4)c3)n2)s1 [Example I-37], Cc1cc(C)cc(Nc2nccc(-c3ncc(N4CCNCC4)s3)n2)c1 [Example I-93], Cc1cc(C)cc(Nc2nccc(-c3ncc(NCCN)s3)n2)c1 [Example I-142], Cc1cnc(-c2ccnc(Nc3ccc(NC(=O)CCNC(=O)OC(C)(C)C)cc3)n2)s1 [Example I-153], CCN(CC)CCCNCc1cnc(-c2ccnc(Nc3cc(C)cc(C)c3)n2)s1 [Example I-45], Cc1cnc(-c2ccnc(Nc3ccc4c(c3)CCC4)n2)s1 [Example I-50], Cc1cnc(-c2ccnc(Nc3ccc(C)c(Br)c3)n2)s1 [Example I-8], Cc1cnc(-c2ccnc(Nc3ccc(Nc4ccccc4)cc3)n2)s1 [Example I-12], COC(=O)c1cc(Nc2nccc(-c3ncc(C)s3)n2)cc(C(=O)OC)c1 [Example I-121], Cc1cc(C)cc(Nc2nccc(-c3ncc(CN4CCOCC4)s3)n2)c1 [Example I-48], CSc1ccc(Nc2nccc(-c3ncc(C)s3)n2)cc1 [Example I-131]

These compounds were tested against T1, ZAP-70 (Homo sapiens, UniProt P43403) (assay: ZAP-70 inhibition assay (standard coupled enzyme assay)). Conditions: 100 μM ATP, 20 μM poly-4EY peptide, 30° C., 60 nM ZAP-70.
T1 sequence (P43403 1-619): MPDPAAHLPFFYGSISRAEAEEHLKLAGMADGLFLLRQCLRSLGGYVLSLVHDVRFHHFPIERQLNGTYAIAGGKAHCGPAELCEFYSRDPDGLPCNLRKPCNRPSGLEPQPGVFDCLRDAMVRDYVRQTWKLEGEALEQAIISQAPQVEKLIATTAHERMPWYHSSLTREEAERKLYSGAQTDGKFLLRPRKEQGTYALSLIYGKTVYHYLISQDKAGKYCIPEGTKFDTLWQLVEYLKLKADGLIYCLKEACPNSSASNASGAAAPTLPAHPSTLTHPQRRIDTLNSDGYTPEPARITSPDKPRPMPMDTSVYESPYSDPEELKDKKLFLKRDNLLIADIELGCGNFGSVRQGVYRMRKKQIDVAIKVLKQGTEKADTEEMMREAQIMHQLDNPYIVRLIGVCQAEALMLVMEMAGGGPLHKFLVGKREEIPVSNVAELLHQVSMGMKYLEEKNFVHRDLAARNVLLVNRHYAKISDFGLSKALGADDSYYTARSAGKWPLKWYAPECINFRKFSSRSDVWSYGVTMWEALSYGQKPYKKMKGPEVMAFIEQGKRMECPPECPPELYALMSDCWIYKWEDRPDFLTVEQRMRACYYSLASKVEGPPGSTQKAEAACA
Type: biochemical
Protocol: Compounds were screened for their ability to inhibit ZAP-70 using a standard coupled enzyme assay (Fox et al., Protein Sci. 1998, 7, 2249). Assays were carried out in a mixture of 100 mM HEPES (pH 7.5), 10 mM MgCl2, 25 mM NaCl, 2 mM DTT and 3% DMSO. Final substrate concentrations in the assay were 100 μM ATP (Sigma Chemicals) and 20 μM peptide (poly-4EY, Sigma Chemicals). Assays were carried out at 30° C. and 60 nM ZAP-70. Final concentrations of the components of the coupled enzyme system were 2.5 mM phosphoenolpyruvate, 300 μM NADH, 30 μg/ml pyruvate kinase and 10 μg/ml lactate dehydrogenase.
An assay stock buffer solution was prepared containing all of the reagents listed above, with the exception of ZAP-70 and the test compound of interest of the present invention. 55 μl of the stock solution was placed in a 96 well plate followed by addition of 2 μl of DMSO stock containing serial dilutions of the test compound of the present invention (typically starting from a final concentration of 15 μM). The plate was preincubated for 10 minutes at 30° C. and the reaction initiated by addition of 10 μl of enzyme (final concentration 60 nM). Initial reaction rates were determined with a Molecular Devices SpectraMax Plus plate reader over a 15 minute time course. Ki data was calculated from non-linear regression analysis using the Prism software package (GraphPad Prism version 3.0a for Macintosh, GraphPad Software, San Diego Calif., USA).

Ki, ≤ 5 µM:
Cc1cnc(-c2ccnc(Nc3cccc(C#N)c3)n2)s1 [Example I-90], CC(=O)Nc1cc(C)cc(Nc2nccc(-c3ncc(C)s3)n2)c1 [Example I-154], Cc1cc(C)cc(Nc2nccc(-c3ncc(N(C)C)s3)n2)c1 [Example I-94], COc1ccc(Nc2nccc(-c3ncc(C)s3)n2)cc1-c1ccccc1 [Example I-16], Cc1cc(C)cc(Nc2nccc(-c3nc(C)c(CCO)s3)n2)c1 [Example I-123], Cc1cnc(-c2ccnc(Nc3ccc4c(c3)CC(=O)N4)n2)s1 [Example I-36], Cc1cc2cc(Nc3nccc(-c4ncc(C)s4)n3)ccc2[nH]1 [Example I-18], Cc1cnc(-c2ccnc(Nc3ccc(N4CCOCC4)cc3)n2)s1 [Example I-91], Cc1cnc(-c2ccnc(Nc3ccc4c(c3)OCCO4)n2)s1 [Example I-127], CC(=O)c1ccc(Nc2nccc(-c3ncc(C)s3)n2)cc1 [Example I-116], Cc1cnc(-c2ccnc(Nc3cc(O)cc(C(F)(F)F)c3)n2)s1 [Example I-109], COC(=O)c1ccc(Nc2nccc(-c3ncc(C)s3)n2)cc1C [Example I-106], Cc1cc(C)cc(Nc2nccc(-c3ncc(CN4CCCCC4)s3)n2)c1 [Example I-46], Cc1cnc(-c2ccnc(Nc3ccc4c(C)cc(=O)oc4c3)n2)s1 [Example I-34], Cc1cnc(-c2ccnc(Nc3ccc(C(C)(C)C)cc3)n2)s1 [Example I-120], COc1ccc(Nc2nccc(-c3ncc(C)s3)n2)cc1 [Example I-28], Cc1cc(C)cc(Nc2nccc(-c3ncc(CNc4ccccc4)s3)n2)c1 [Example I-141], OCc1cnc(-c2ccnc(Nc3ccccc3OCc3ccccc3)n2)s1 [Example I-150], OCc1cnc(-c2ccnc(Nc3cc(O)cc(C(F)(F)F)c3)n2)s1 [Example I-144], Cc1cnc(-c2ccnc(Nc3c(C)cccc3C)n2)s1 [Example I-100], Cc1cc(C)cc(Nc2nccc(-c3ncc(CN4CCC[C@H]4CO)s3)n2)c1 [Example I-86], Cc1cnc(-c2ccnc(Nc3ccc(O)c(C)c3)n2)s1 [Example I-102], Cc1cc(C)cc(Nc2nccc(-c3nc(CBr)cs3)n2)c1 [Example I-64], Cc1cnc(-c2ccnc(Nc3cccc(N)c3)n2)s1 [Example I-32], Cc1cnc(-c2ccnc(Nc3cc(Cl)cc(Cl)c3)n2)s1 [Example I-51], Cc1cc(C)cc(Nc2nccc(-c3ncc(CNCCCO)s3)n2)c1 [Example I-88], Cc1cc(C)cc(Nc2nccc(-c3ncc(C(=O)O)s3)n2)c1 [Example I-118], Cc1cnc(-c2ccnc(Nc3ccc(N(C)C)cc3)n2)s1 [Example I-92], Cc1cnc(-c2ccnc(Nc3ccc4[nH]ccc4c3)n2)s1 [Example I-31], Cc1cc(C)cc(Nc2nccc(-c3ncc(CN(C)C)s3)n2)c1 [Example I-44], CCc1cnc(-c2ccnc(Nc3cc(C)cc(C)c3)n2)s1 [Example I-75], Cc1cc(Nc2nccc(-c3ncc(C)s3)n2)cc(NS(C)(=O)=O)c1 [Example I-155], CCCc1cnc(-c2ccnc(Nc3cc(C)cc(C)c3)n2)s1 [Example I-85], Cc1cnc(-c2ccnc(Nc3ccc([N+](=O)[O-])cc3)n2)s1 [Example I-79], Cc1cnc(-c2ccnc(Nc3cccc(OCc4ccccc4)c3)n2)s1 [Example I-37], Cc1cc(C)cc(Nc2nccc(-c3ncc(N4CCNCC4)s3)n2)c1 [Example I-93], Cc1cc(C)cc(Nc2nccc(-c3ncc(NCCN)s3)n2)c1 [Example I-142], Cc1cnc(-c2ccnc(Nc3ccc(NC(=O)CCNC(=O)OC(C)(C)C)cc3)n2)s1 [Example I-153], CCN(CC)CCCNCc1cnc(-c2ccnc(Nc3cc(C)cc(C)c3)n2)s1 [Example I-45], Cc1cnc(-c2ccnc(Nc3ccc4c(c3)CCC4)n2)s1 [Example I-50], Cc1cc(C)cc(Nc2nccc(-c3ncc(C)s3)n2)c1 [Example I-41], Cc1cnc(-c2ccnc(Nc3ccc(C)c(Br)c3)n2)s1 [Example I-8], Cc1cnc(-c2ccnc(Nc3ccc(Nc4ccccc4)cc3)n2)s1 [Example I-12], COC(=O)c1cc(Nc2nccc(-c3ncc(C)s3)n2)cc(C(=O)OC)c1 [Example I-121], OCc1csc(-c2ccnc(Nc3cc(O)cc(C(F)(F)F)c3)n2)n1 [Example I-146], Cc1cc(C)cc(Nc2nccc(-c3ncc(CN4CCOCC4)s3)n2)c1 [Example I-48], CSc1ccc(Nc2nccc(-c3ncc(C)s3)n2)cc1 [Example I-131]
